Experimental findings from ChEMBL document CHEMBL1201862, “PubChem BioAssay data set” (2004) are described below.

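96-well plates; 48 h exposure; 5 concentrations. Endpoints by linear interpolation between flanking doses. Not reached: highest tested concentration assigned. GI50 = concentration required for 50% inhibition of growth.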 Activity calls are given as the source filed them. Cut-off read from the data, not from the text of the source: active = GI50 up to about 1.1 µM and inactive = higher. Some results are limits rather than exact numbers.

Assay in all cases: NCI tumour cell line growth inhibition, 48 h
The test system of test [1] is MDA-MB-231.
The subject of test [2] is A498.
Test [3] relates to HT-29.
Test [4] relates to SNB-75.
Test [5] has as its system HCT-15.
Test [6] deals with COLO 205.
Test [7] has as its system MDA-MB-435.
Test [8] relates to SF-295.
The test system of test [9] is TK-10.
Test [10] deals with BT-549.
The test system of test [11] is SNB-19.
The subject of test [12] is HOP-62.
The test system of test [13] is HOP-92.
Test [14] relates to M14.
For test [15], the system named is NCI-H23.
Test [16] deals with KM12.
In test [17] the test system is PC-3.
Test [18] has as its system RXF 393.
Test [19] relates to K562.
The test system of test [20] is SK-MEL-2.

As to `COc1ccc2c3c1OC1C(=O)C=CC4(CC2)N(C)CCC314` (centres undefined), the GI50 in test [1] was 41.2 µM (inactive); in [2] it was 13.9 µM (inactive); in test [3], 28.6 µM (inactive); in test [4], 28.1 µM (inactive); in test [5], 18.9 µM; in test [6] it was 6.19 µM (inactive). Further, the GI50 in test [7] is 12.2 µM (inactive); in [8] it was 38 µM (inactive); in test [9], 27.3 µM (inactive); in test [10], 23.6 µM (inactive); in test [11], 19.5 µM (inactive); in test [12] it was 29.6 µM (inactive). The GI50 in [13] is 22.7 µM (inactive); in [14], 16.6 µM (inactive); in [15], 14 µM (inactive); in test [16], 14.1 µM (inactive); in [17], 21.7 µM (inactive); in [18] it was 25.9 µM (inactive). For the same compound, the GI50 in [19] is 12.2 µM (inactive); in [20] it was 16.3 µM (inactive).

`CCCCCCCCCCCCCCCC[N+](C)(C)CCl`: the GI50 is 2.02 µM (inactive) in test [1]; 8.67 µM (inactive) in [2]; 1.59 µM (inactive) in test [3]; 1.86 µM (inactive) in test [4]; 3.59 µM in test [5]; 1.65 µM (inactive) in test [6]. The GI50 is 3.07 µM (inactive) in [7]; 2.26 µM (inactive) in test [8]; 2.25 µM (inactive) in test [9]; 2.29 µM (inactive) in [10]; 1.66 µM (inactive) in [11]; 2.29 µM (inactive) in [12]. Moreover, the GI50 in [13] is 1.17 µM (inactive); in [14], 2.31 µM (inactive); in test [15] it was 4.19 µM (inactive); in test [16] it was 1.46 µM (inactive); in test [17], 2.17 µM (inactive); in test [18], 1.32 µM (inactive). Besides, the GI50 is 1.75 µM (inactive) in [19] and 13.3 µM (inactive) in test [20].

In the case of `CCCCNCC(=O)O[C@]1(CC)C(=O)OCc2c1cc1n(c2=O)Cc2cc3ccccc3nc2-1`, the GI50 in [1] is 29.9 µM (inactive); in test [2], 0.741 µM (active); in [3], 0.838 µM (active); in test [4], 0.098 µM (active); in [5], 2.15 µM; in [6] it was 1.7 µM (inactive). Further, the GI50 in [7] is 1.57 µM (inactive); in test [8] it was 0.0705 µM (active); in test [9], 6.15 µM (inactive); in [10], 0.391 µM (active); in test [11], 0.0542 µM (active); in test [12], < 0.0277 µM (active). Besides, the GI50 was 1.52 µM (inactive) in test [13]; 0.231 µM (active) in test [14]; 0.0769 µM (active) in [15]; 1.63 µM (inactive) in test [16]; 1.85 µM (inactive) in test [17]; 0.385 µM (active) in test [18]. Also, the values for the GI50 in test [19] and in test [20] were 0.476 µM (active) and 3.14 µM (inactive), respectively.

In the case of `CCC(C)N1CN(c2ccccc2)C2(CCN(CCCC3(c4ccc(F)cc4)OCCO3)CC2)C1=O` (centres undefined), the GI50 in [1] was 13.4 µM (inactive); in test [2], 22.2 µM (inactive); in test [3], 2.87 µM (inactive); in [4] it was 6.05 µM (inactive); in test [5], 4.75 µM; in test [6] it was 3.75 µM (inactive). In addition, the GI50 in test [7] was 18.8 µM (inactive); in test [8], 5.57 µM (inactive); in test [9], 7.5 µM (inactive); in test [10] it was 2 µM (inactive); in [11] it was 12.4 µM (inactive); in test [12], 13.2 µM (inactive). For the same compound, the GI50 in test [13] was < 0.01 µM (active); in test [14] it was 5.97 µM (inactive); in test [15], 3.34 µM (inactive); in test [16], 20.6 µM (inactive); in test [17], 6.05 µM (inactive); in test [18], 13 µM (inactive). In addition, the GI50 in [19] was 8.24 µM (inactive); in [20], 11.9 µM (inactive).

On to `Cc1c(C(=O)OCc2ccccc2)[n+]([O-])c2cc(F)c(F)cc2[n+]1[O-]`, for which the GI50 is 1.8 µM (inactive) in test [1]; 1.42 µM (inactive) in [2]; 2.01 µM (inactive) in [3]; 2.7 µM (inactive) in test [4]; 0.583 µM in [5]; 3.61 µM (inactive) in test [6]. Also, the GI50 in [7] was 2.15 µM (inactive); in test [8] it was 2.16 µM (inactive); in test [9] it was 16.3 µM (inactive); in test [10], 1.83 µM (inactive); in test [11], 2.08 µM (inactive); in [12] it was 4.67 µM (inactive). For the same compound, the GI50 in test [13] is 2.21 µM (inactive); in test [14] it was 1.77 µM (inactive); in [15], 2.37 µM (inactive); in test [16] it was 5.68 µM (inactive); in test [17], 2.52 µM (inactive); in test [18], 2.38 µM (inactive). In addition, the GI50 in test [19] is 0.264 µM (active); in test [20], 1.67 µM (inactive).

`CC(C)(C)O/C=C1/C(=O)OC2C[C@@H](O[Si](C)(C)C(C)(C)C)CC12` (some centres undefined): the GI50 was > 100 µM (inactive) in test [1]; > 100 µM (inactive) in test [2]; 68.1 µM (inactive) in [3]; 16.8 µM (inactive) in [4]; 49.3 µM in [5]; 72.9 µM (inactive) in test [6]. Moreover, the GI50 was 77.6 µM (inactive) in [7]; 61.5 µM (inactive) in [8]; > 100 µM (inactive) in test [9]; 56.5 µM (inactive) in test [10]; 94.2 µM (inactive) in [11]; > 100 µM (inactive) in [12]. Moreover, the GI50 in test [13] is 43.7 µM (inactive); in test [14] it was 54.6 µM (inactive); in test [15], 39.7 µM (inactive); in [16], 65.2 µM (inactive); in [17], 45.5 µM (inactive); in [18] it was 0.759 µM (active). Moreover, the GI50 in test [20] was > 100 µM (inactive).

In the case of `C=C1C(O)C2OC(=O)C(=C)C2C(OC(=O)/C(C)=C/C)CC2(C)OC2C2OC12` (centres undefined), the GI50 in [1] was 8.36 µM (inactive); in test [2], 15.3 µM (inactive); in test [3] it was 5.47 µM (inactive); in test [4] it was 10.4 µM (inactive); in [5] it was 2.55 µM; in test [6] it was 7.1 µM (inactive). Further, the GI50 was 5.74 µM (inactive) in [7]; 14.2 µM (inactive) in test [8]; 14.4 µM (inactive) in [9]; 7.71 µM (inactive) in [10]; 19.5 µM (inactive) in [11]; 14.5 µM (inactive) in test [12]. The GI50 in [13] was 19.4 µM (inactive); in test [14], 18 µM (inactive); in [15], 8.28 µM (inactive); in test [16] it was 2.86 µM (inactive); in test [17] it was 15.3 µM (inactive); in [18], 4.85 µM (inactive). The GI50 in test [20] was 5.47 µM (inactive).

`COC(=O)C(CCCCN)NC(C)=O.Cc1ccc(C(=O)Nc2ccc(S(=O)(=O)O)c3cc(S(=O)(=O)O)cc(S(=O)(=O)O)c23)cc1NC(=O)c1cccc(NC(=O)Nc2cccc(C(=O)Nc3cc(C(=O)Nc4ccc(S(=O)(=O)O)c5cc(S(=O)(=O)O)cc(S(=O)(=O)O)c45)ccc3C)c2)c1`: the GI50 in test [1] was > 50 µM (inactive); in test [2], > 50 µM (inactive); in test [3], > 50 µM (inactive); in [4], > 50 µM (inactive); in test [5] it was 23.9 µM; in test [6] it was > 50 µM (inactive). Moreover, the GI50 in [7], in test [8], in test [10], in [11], in [13] and in test [14] was > 50 µM (inactive) each time. The GI50 in [15] was > 50 µM (inactive); in [16] it was > 50 µM (inactive); in [17], > 50 µM (inactive); in test [18] it was 37.4 µM (inactive); in test [19] it was > 50 µM (inactive); in test [20], > 50 µM (inactive).

Take `CCC(CCCN)Nc1cc(OC)cc2c(C)ccnc12` (centres undefined): the GI50 is 13.3 µM (inactive) in [1]; 18.7 µM (inactive) in [2]; 14.3 µM (inactive) in [3]; 12.7 µM (inactive) in test [4]; 22.9 µM in [5]; 18.2 µM (inactive) in test [6]. The GI50 is 14.8 µM (inactive) in test [7]; 17.3 µM (inactive) in test [8]; 17.7 µM (inactive) in test [9]; 14.9 µM (inactive) in test [10]; 11.3 µM (inactive) in test [11]; 15.1 µM (inactive) in [12]. Further, the GI50 is 14 µM (inactive) in test [13]; 15.2 µM (inactive) in [14]; 14.9 µM (inactive) in test [16]; 11.6 µM (inactive) in test [17]; 13.8 µM (inactive) in test [18]; 15 µM (inactive) in test [19]. In addition, the GI50 in test [20] is 20.8 µM (inactive).

Consider `C[n+]1c(-c2ccc(/C=N\N3CCN(/N=C/c4ccc(-c5cn6ccsc6[n+]5C)cc4)CC3)cc2)cn2ccsc21`, for which the GI50 in test [1] is 20.7 µM (inactive); in test [2], 23.1 µM (inactive); in test [3] it was 40.8 µM (inactive); in [4], 26.9 µM (inactive); in [5], 34.5 µM; in test [6] it was 16.8 µM (inactive). Moreover, the GI50 in [7] was 26.7 µM (inactive); in [8] it was 28.6 µM (inactive); in test [9], 35.7 µM (inactive); in test [10], 17.1 µM (inactive); in test [11], 38.4 µM (inactive); in [13], 42.3 µM (inactive). For the same compound, the GI50 in [14] is 44.8 µM (inactive); in [15], 30.1 µM (inactive); in test [16], 25.8 µM (inactive); in [17], > 100 µM (inactive); in test [18] it was 27.3 µM (inactive); in test [19], 11.8 µM (inactive). The GI50 in test [20] was 31.8 µM (inactive).
